Results on nine compounds are retold here after patent US5196292A, “Nucleated high contrast photographic elements containing ballasted thioether isothioureas to inhibit pepper fog and restrain image spread” (priority 1991, dated 1993).

The nature of assay [1]: image spread: halftone dot growth rate during development. The settings on record: for Dot Growth Rate: Table II, 0.5 mmol/Ag mol, control 0.63 microns/sec; for reduction of dot growth rate (in words): from Table II, versus control, silver chlorobromide emulsion. The method, then: (§1) Each coating used in obtaining the data provided in these examples was prepared on a polyester support, using a monodispersed 0.23 micrometer cubic, rhodium-doped, sulfur plus gold sensitized AgClBr(70/30) emulsion at 3.24 g/m^2 Ag, 2.35 g gel/m^2 and 1.00 g latex/m^2, where the latex is a copolymer of methyl acrylate, 2-acrylamido-2-methylpropane sulfonic acid and 2-acetoacetoxyethylmethacrylate. Sulfur and gold sensitization was provided by addition of 1.5 mg/Ag mole of 1,3-dicarboxymethyl-1,3-dimethyl-2-thiourea and 1.1 mg/Ag mole of potassium tetrachloroaurate. The silver halide emulsion also contained, in amounts of 50, 400, and 200 mg/Ag mole, respectively, the antifoggants 1-(3-acetamidophenyl)-5-mercaptotetrazole, 5-carboxy-4-hydroxy-6-methyl-2-methyl-mercapto1,3,3a,7-tetra-azaindene and 5-bromo-4-hydroxy-6-methyl-1,3,3a,7-tetraazaindene. The emulsion was spectr sensitized at 208 mg/Ag mol with a sensitizing dye of the formula: [drawing 17] and the emulsion layer was overcoated with gelatin containing polymethylmethacrylate beads. The nucleating agent was added as a methanol solution to the emulsion melts at a level of 0.2 millimoles (mM) per mole of silver. The compound employed as the nucleating agent is represented by the formula: [drawing 18]
(§2) An "incorporated booster" was added as a methanol solution in an amount of 2 g/Ag mol. The compound employed as the "incorporated booster" is represented by the formula: [drawing 19] where Pr represents n-propyl
(§3) Ballasted thioether isothioureas I to VII were incorporated n the emulsion at 0.5 mmol/Ag mol as methanol solutions. Coatings were exposed through a 0.1 Log E step tablet for five seconds to a 3000° K. tungsten light source and processed for 30 seconds at 30° C. in the developer solution. Processing was carried out in a KODAK KODAMATIC Model 42S processor.
Each of the coatings was also analyzed for the effect upon image spread of the incorporation of the isothiourea compound.
Image spread measurements were performed by following the growth in diameter of halftone dots with development time. The films were contact exposed to a 52 line/cm 90% tint to produce a 10% exposed dot pattern. The films were then developed in a device that measures the infrared (IR) density during development. The integrated IR halftone density of the developing tint pattern was converted to the equivalent dot diameter using the relation between integrated density and percent dot area. The resulting plots of increasing dot diameter with development time were linear (constant dot growth rate) during the first 60 to 90 seconds of development.

A short description of assay [2]: pepper fog spot count by electronic image analyzer, change versus control. The settings on record: for Delta Log PF (pepper fog): Table I, 0.5 mmol/Ag mol, spots >10 micrometer diameter in 600 square millimeters, -0.3 = two times reduction; for reduction in pepper fog (in words): from Table I, versus control. Here is the method: as §1, §2, §3
(§4) The concentrate was diluted at a ratio of one part of concentrate to three parts of water to produce a working strength developing solution with a pH of 10.5.
(§5) An electronic image analyzer was used to scan processed unexposed samples and count the number of pepper fog spots (>10 micrometer diameter) contained in an area of 600 square millimeters. Standard sensitometry exposures were processed and analyzed to monitor speed and shoulder density effects.
(§6) Sensitometry parameters are expressed in Table I in terms of the change produced by incorporation of the ballasted thioether isothiourea versus the control which contained no isothiourea compound and was processed under identical conditions. Values are reported for speed, practical density point (PDP, a measure of shoulder development) and pepper fog (PF). Therefore, the changes in speed, practical density point and pepper fog produced by the ballasted thioether isothiourea are directly recorded in the table. By definition, the delta log speed, delta PDP and delta log PF for the control are zero.
(§7) In each of examples 1 to 7, the ballasted thioether isothiourea was employed in the form of the hydrochloride salt. Comparative test A utilized the hydrobromide salt of isothiourea compound "A" of the formula: [drawing 20] Comparative test B utilized the hydrobromide salt of isothiourea compound "B" of the formula: [drawing 21] Both compounds A and B were utilized at a concentration of 0.5 mmol/Ag mol.

The nature of assay [3]: sensitometry: change in speed and practical density point versus control. The conditions noted are these: Table I; for Delta Log Speed: 0.5 mmol/Ag mol isothiourea, change versus control without isothiourea; for Delta PDP (practical density point): 0.5 mmol/Ag mol, density at 0.4 log E past speed point, Test PDP - Control PDP. The method, then:
as §1, §2, §3, §4, §5, §6, §7

As to `CCCCCCSCCCSC(=N)N` [III], the “Dot Growth Rate” value in assay [1] is recorded as 0.54 microns/sec. Further, the “Delta Log PF (pepper fog)” value in assay [2] is on record as -0.58. In assay [3], the “Delta Log Speed” value is reported as -0.02 and the “Delta PDP (practical density point)” value was -0.36.
Turning to `N=C(N)SCCSCc1ccccc1` [VII], the “Dot Growth Rate” value in assay [1] is 0.54 microns/sec. Also, in assay [2], the “Delta Log PF (pepper fog)” value was -0.86 and the “reduction in pepper fog (in words)” value is “reducing pepper fog by a factor of almost ten times”. Also, in assay [3], the “Delta Log Speed” value was -0.03 and the “Delta PDP (practical density point)” value is -0.42.
As for `CCCCCCSCCSC(=N)N` [I], in assay [1], the “Dot Growth Rate” value is recorded as 0.55 microns/sec. The “Delta Log PF (pepper fog)” value in assay [2] is recorded as -0.14. Further, in assay [3], the “Delta Log Speed” value is -0.01 and the “Delta PDP (practical density point)” value is reported as -0.06.
Taken in the same sequence, the figures for `CCCCSCCSC(=N)N` [V] were 0.57 microns/sec, -0.33, -0.01 and -0.38.
With `CCCCCCCCCCCCSC(=N)N` [B, reference compound], in assay [1], the “Dot Growth Rate” value worked out at 0.62 microns/sec and the “reduction of dot growth rate (in words)” value was “ineffective in reducing dot growth rate”. In assay [2], the “Delta Log PF (pepper fog)” value is -0.07 and the “reduction in pepper fog (in words)” value is given as “also reduced pepper fog, but to a much lesser extent”. In assay [3], the “Delta Log Speed” value is on record as -0.02 and the “Delta PDP (practical density point)” value is -0.34.
On to `CCCCCCCCCCSCCCSC(=N)N` [IV], for which, in assay [1], the “Dot Growth Rate” value is reported as 0.58 microns/sec. Further, the “Delta Log PF (pepper fog)” value in assay [2] was -0.43. Moreover, in assay [3], the “Delta Log Speed” value is recorded as -0.01 and the “Delta PDP (practical density point)” value is on record as -0.39.
With `N=C(N)SCCSc1ccccc1` [VI], in assay [1], the “Dot Growth Rate” value is on record as 0.60 microns/sec. In assay [2], the “Delta Log PF (pepper fog)” value is -0.48. Besides, in assay [3], the “Delta Log Speed” value is recorded as -0.01 and the “Delta PDP (practical density point)” value is given as -0.19.
For the compound `CCCCCCCCSC(=N)N` [Compound A, reference compound], in assay [1], the “Dot Growth Rate” value turned out to be 0.62 microns/sec and the “reduction of dot growth rate (in words)” value was “ineffective in reducing dot growth rate”. Further, in assay [2], the “Delta Log PF (pepper fog)” value is recorded as -0.12 and the “reduction in pepper fog (in words)” value is “also reduced pepper fog, but to a much lesser extent”. Besides, in assay [3], the “Delta Log Speed” value was -0.02 and the “Delta PDP (practical density point)” value is on record as -0.22.
With `CCCCCCCCCCSCCSC(=N)N` [II], the “Dot Growth Rate” value in assay [1] stood at 0.58 microns/sec. The “Delta Log PF (pepper fog)” value in assay [2] is on record as -0.46. In assay [3], the “Delta Log Speed” value is -0.03 and the “Delta PDP (practical density point)” value is -0.14.
